In US8846704B2, “Thiopyrimidine-based compounds and uses thereof” (YM Biosciences Austraila Pty Ltd, priority 2007, dated 2014):

The compounds below were run against T1, human JAK1 (Homo sapiens, UniProt P23458) (assay: Alphascreen tyrosine kinase enzyme assay, JAK1 kinase domain). Settings: read-out: JAK1 IC50_nM.
T1 construct: The kinase domain of human JAK1 was amplified; GST (N); made in house; host or cells: Sf9 insect cells (baculovirus)
T1 sequence (P23458 875-1153 limits assumed): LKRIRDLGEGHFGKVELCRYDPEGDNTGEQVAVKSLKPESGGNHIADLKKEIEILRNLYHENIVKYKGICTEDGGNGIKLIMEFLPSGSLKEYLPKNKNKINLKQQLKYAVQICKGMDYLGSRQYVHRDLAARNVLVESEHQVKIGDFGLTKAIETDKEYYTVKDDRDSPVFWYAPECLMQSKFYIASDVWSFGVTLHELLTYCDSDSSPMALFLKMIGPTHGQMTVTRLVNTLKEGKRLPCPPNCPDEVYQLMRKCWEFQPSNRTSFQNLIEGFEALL
Type: biochemical
Experimental: For screening purposes, compounds (in 100% DMSO) were warmed at 37 degrees for at least 20 minutes before use. A […] stock was initially made in assay buffer, where the final concentration of DMSO was 0.3%. The stocks were then diluted in 384 well Optiplates (Packard) where the final concentration of the compound was […].
The kinase domain of human JAK1 was amplified from U937mRNA using the polymerase chain reaction with the following primers: […]
The JAK1 PCR products were cloned into the pDest20 destination vector (Gibco). The JAK1 plasmid was then transformed into competent DH10Bac cells (Gibco), and the recombinant baculovirus was prepared via Sf9 insect cell transfection.
Baculovirus preparations from each of the constructs were infected into either one or five liters of Sf9 cells (Invitrogen) grown in SF-900 medium (Invitrogen) to a cell density of approximately 1-2×10^6 cells/ml. Cells were infected with virus at a MOI of 0.8-3.0. Cells were harvested and lysed. Tyrosine kinase domains were purified by affinity chromatography on a glutathione-agarose column (Scientifix Pty. Ltd. catalog #: GSH-200).
Kinase assays were performed in 384 well Optiplates (Packard) using an Alphascreen Protein Tyrosine Kinase PY100 detection kit The compounds were pre-incubated with affinity purified PTK domain in the presence of phosphotyrosine assay buffer (10 mM HEPES, pH 7.5, 100 mM MgCl2, 25 mM NaCl, […] and 0.1% Tween 20) for 20 minutes. The compounds were then incubated with substrate in the presence of ATP. The substrate used was susbtrate-1 with the sequence biotin-EGPWLEEEEEAYGWMDF-NH2 [SEQ. ID. NO. 13] (final concentration […]). For HCK 80 μm ATP was used and incubated for 60 minutes. Alphascreen phosphotyrosine acceptor beads followed by streptavidin donor beads at a concentration of 1/100 in stop buffer were added to each well under subdued light and incubated for 2-3 hours., The Alphascreen plates were read on a Packard Fusion Alpha instrument.
Work on `C=CC(=O)NCc1ccc(Sc2ccnc(Nc3ccc(N4CCOCC4)cc3)n2)cc1` [Compound 111, N-(4-(2-(4-morpholinophenylamino)pyrimidin-4-ylthio)benzyl)acrylamide] yielded an IC50 greater than 1 µM.
With `N#CCNCc1cccc(Sc2ccnc(Nc3ccc(N4CCOCC4)cc3)n2)c1` [Compound 68, 2-(3-(2-(4-morpholinophenylao)pyrimidin-4-ylthio)benzylao)acetonitrile] the IC50 was less than 1 µM.
Compound `C=CC(=O)Nc1ccc(Sc2nc(Nc3ccc(N4CCOCC4)c(OC)c3)ncc2C)cc1` [Compound 248, N-(4-(2-(3-methoxy-4-morpholinophenylao)-5-methylpyrimidin-4-ylthio)phenyl)acrylamide] has an IC50 greater than 1 µM.
In the case of `C=CC(=O)Nc1ccc(Sc2nc(Nc3ccc(OC)c(OC)c3)ncc2C)cc1` [Compound 241, N-(4-(2-(3,4-dimethoxyphenylao)-5-methylpyrimidin-4-ylthio)phenyl)acrylamide], the IC50 is reported as greater than 1 µM.
For `Nc1ccc(Sc2ccnc(Nc3ccc(N4CCOCC4)cc3)n2)cc1` [Compound 27, 4-(4-aophenylthio)-N-(4-morpholinophenyl)pyrimidin-2-ae], the IC50 was less than 1 µM.
`NCc1cccc(Sc2ccnc(Nc3ccc(N4CCOCC4)cc3)n2)c1` [Compound 75, 4-(3-(aomethyl)phenylthio)-N-(4-morpholinophenyl)pyrimidin-2-ae] was tested, and the IC50 was less than 0.5 µM.
In the case of `Cc1cnc(Nc2ccc(N3CCOCC3)cc2)nc1Sc1ccc(N2C(=O)C=C(Br)C2=O)cc1` [Compound 382, 3-bromo-1-(4-(5-methyl-2-(4-morpholinophenylao)pyrimidin-4-ylthio)phenyl)-1H-pyrrole-2,5-dione], the IC50 is reported as greater than 1 µM.
For `C=CC(=O)Nc1cccc(Nc2nccc(Sc3ccc(OC)cc3)n2)c1` [Compound 42, N-(3-(4-(4-methoxyphenylthio)pyrimidin-2-ylao)phenyl)acrylamide], the IC50 was greater than 1 µM.
`Cc1cnc(Nc2ccc(N3CCOCC3)cc2)nc1Sc1c(C)cc(N)cc1C` [Compound 165, 4-(4-ao-2,6-dimethylphenylthio)-5-methyl-N-(4-morpholinophenyl)pyrimidin-2-ae] gave an IC50 greater than 1 µM.
For `N#CCC(=O)Nc1cccc(Sc2ccnc(Nc3ccc(N4CCOCC4)cc3)n2)c1` [Compound 24, N-(3-(2-(4-morpholinophenylamino)pyrimidin-4-ylthio)phenyl)-2-cyanoacetamide], the IC50 was greater than 1 µM.
With `C=CC(=O)Nc1ccc(Sc2ccnc(Nc3ccc(N4CCOCC4)cc3)n2)cc1` [Compound 25, N-(4-(2-(4-morpholinophenylamino)pyrimidin-4-ylthio)phenyl)acrylamide] the IC50 was greater than 1 µM.
For `C=CC(=O)Nc1ccc(Sc2ccnc(Nc3ccc(S(N)(=O)=O)c(OC)c3)n2)cc1` [Compound 374, N-(4-(2-(3-methoxy-4-sulfamoylphenylao)pyrimidin-4-ylthio)phenyl)acrylamide], the IC50 was greater than 1 µM.
Compound `C=CC(=O)Nc1ccc(Sc2nc(Nc3cccc(CO)c3)ncc2C)cc1` [Compound 280, N-(4-(2-(3-(hydroxymethyl)phenylao)-5-methylpyrimidin-4-ylthio)phenyl)acrylamide] has an IC50 greater than 1 µM.
Compound `OCc1ccc(Sc2ccnc(Nc3ccc(N4CCOCC4)cc3)n2)cc1` [Compound 67, (4-(2-(4-morpholinophenylao)pyrimidin-4-ylthio)phenyl)methanol] has an IC50 of less than 1 µM.
For `C=CC(=O)Nc1ccc(Sc2nc(Nc3ccc(N4CCOCC4)cc3)ncc2Br)cc1` [Compound 306, N-(4-(5-bromo-2-(4-morpholinophenylao)pyrimidin-4-ylthio)phenyl)acrylamide], the IC50 was greater than 1 µM.
`C=CC(=O)Nc1ccc(Sc2nc(Nc3ccc(NS(C)(=O)=O)cc3)ncc2C)cc1` [Compound 285, N-(4-(5-methyl-2-(4-(methylsulfonamido)phenylao)pyrimidin-4-ylthio)phenyl)acrylamide] gave an IC50 greater than 1 µM.
With `CCOC(=O)/C=C/C(=O)Nc1ccc(Sc2nc(Nc3ccc(N4CCOCC4)cc3)ncc2C)cc1` [Compound 385, (E)-ethyl 4-(4-(5-methyl-2-(4-morpholinophenylao)pyrimidin-4-ylthio)phenylao)-4-oxobut-2-enoate] the IC50 was greater than 1 µM.
